ChEMBL document CHEMBL1201862, “PubChem BioAssay data set” (2004)
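Dose response: 5 concentrations. Exposure: 48 h. Format: 96-well plates. Endpoint: linear interpolation; highest concentration if not reached. Here, GI50 denotes the concentration required for 50% inhibition of growth.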 Active and inactive are the calls of the source. Cut-off read from the data, not from the text of the source: active = GI50 up to about 1.1 µM and inactive = higher.

Tests used:
Test in all cases: inhibition of tumour cell growth, NCI panel, 48 h
[1] = tested on: 786-0
[2] = tested on: HCC 2998
[3] = tested on: HL-60
[4] = tested on: K562
[5] = tested on: LOX IMVI
[6] = tested on: M14
[7] = tested on: MDA-MB-435
[8] = tested on: NCI-H23
[9] = tested on: PC-3
[10] = tested on: RPMI-8226
[11] = tested on: SK-MEL-28
[12] = tested on: SK-OV-3
[13] = tested on: SNB-75
[14] = tested on: SR
[15] = tested on: SW-620
[16] = tested on: TK-10
[17] = tested on: HT-29
[18] = tested on: KM12
[19] = tested on: UACC-257
[20] = tested on: BT-549

SMILES | GI50 [1] | GI50 [2] | GI50 [3] | GI50 [4] | GI50 [5] | GI50 [6] | GI50 [7] | GI50 [8] | GI50 [9] | GI50 [10] | GI50 [11] | GI50 [12] | GI50 [13] | GI50 [14] | GI50 [15] | GI50 [16] | GI50 [17] | GI50 [18] | GI50 [19] | GI50 [20]
Cc1ccc2nc(-c3ccc(-c4nc5ccc(C)cc5o4)c(O)c3)oc2c1 | > 100 µM (inactive) | > 100 µM (inactive) | > 100 µM (inactive) | > 100 µM (inactive) | > 100 µM (inactive) | > 100 µM (inactive) | > 100 µM (inactive) | > 100 µM (inactive) | > 100 µM (inactive) | > 100 µM (inactive) | > 100 µM (inactive) | > 100 µM (inactive) | > 100 µM (inactive) | > 100 µM (inactive) | > 100 µM (inactive) | > 100 µM (inactive) |  |  |  | 
C/C(=N\O)C1CC2C=C(C#N)C1N(Cc1ccccc1)C2 (stereo not drawn) | > 100 µM (inactive) | 80.5 µM (inactive) | > 100 µM (inactive) | > 100 µM (inactive) | > 100 µM (inactive) | > 100 µM (inactive) | > 100 µM (inactive) | > 100 µM (inactive) | > 100 µM (inactive) | > 100 µM (inactive) | > 100 µM (inactive) | > 100 µM (inactive) | > 100 µM (inactive) | > 100 µM (inactive) | > 100 µM (inactive) | > 100 µM (inactive) | > 100 µM (inactive) | > 100 µM (inactive) | > 100 µM (inactive) | 
CCOP(=O)(C=C=C(C)C)OCC | > 100 µM (inactive) | > 100 µM (inactive) | 94.6 µM (inactive) | > 100 µM (inactive) | > 100 µM (inactive) | > 100 µM (inactive) | > 100 µM (inactive) | > 100 µM (inactive) | > 100 µM (inactive) |  | > 100 µM (inactive) | > 100 µM (inactive) | > 100 µM (inactive) | > 100 µM (inactive) | > 100 µM (inactive) | > 100 µM (inactive) | > 100 µM (inactive) | > 100 µM (inactive) | > 100 µM (inactive) | 
O=C(Oc1ccc(C(c2c(O)c3ccccc3oc2=O)c2c(O)c3ccccc3oc2=O)cc1)c1ccc(C(=O)c2ccccc2)cc1 | 33 µM (inactive) | 18.8 µM (inactive) |  | 22.1 µM (inactive) | 21.9 µM (inactive) |  | 20.3 µM (inactive) | 18.5 µM (inactive) | 18.7 µM (inactive) | 22.6 µM (inactive) | 13.6 µM (inactive) | 16.7 µM (inactive) | 17.7 µM (inactive) | 26.1 µM (inactive) | 32.7 µM (inactive) | 17.9 µM (inactive) | 17.7 µM (inactive) | 17.1 µM (inactive) | 17.2 µM (inactive) | 
N/C(=N\c1ccc(Cl)cc1)NS(=O)(=O)c1ccc(-c2ccccn2)s1 | 15.2 µM (inactive) |  |  | 15.4 µM (inactive) | 17.5 µM (inactive) | 17.8 µM (inactive) |  | 15.9 µM (inactive) | 14.2 µM (inactive) | 16.9 µM (inactive) | 19.4 µM (inactive) | 22.1 µM (inactive) | 21.8 µM (inactive) | 14.5 µM (inactive) | 19.4 µM (inactive) | 17.3 µM (inactive) | 18.3 µM (inactive) | 29.7 µM (inactive) | 7.91 µM (inactive) | 17.3 µM (inactive)
C[C@@H](C(=O)O)N1C(c2ccco2)=C(/C(C=O)=C\c2ccco2)C(=O)/C1=C\c1ccco1 | > 100 µM (inactive) |  | > 100 µM (inactive) | > 100 µM (inactive) | > 100 µM (inactive) | > 100 µM (inactive) | > 100 µM (inactive) | > 100 µM (inactive) | > 100 µM (inactive) | > 100 µM (inactive) | > 100 µM (inactive) |  |  |  | > 100 µM (inactive) | > 100 µM (inactive) | > 100 µM (inactive) | > 100 µM (inactive) | > 100 µM (inactive) | > 100 µM (inactive)
CC1(C)O[C@H]2Cn3c(c(C#N)c4ccccc43)[C@H]2O1 | > 100 µM (inactive) | > 100 µM (inactive) | > 100 µM (inactive) |  |  | > 100 µM (inactive) | > 100 µM (inactive) | > 100 µM (inactive) |  | > 100 µM (inactive) | > 100 µM (inactive) | > 100 µM (inactive) | 39.8 µM (inactive) | > 100 µM (inactive) |  | > 100 µM (inactive) | > 100 µM (inactive) | > 100 µM (inactive) |  | > 100 µM (inactive)
NC(=S)N/N=c1\cc(C(=O)Nc2ccc([N+](=O)[O-])cc2[N+](=O)[O-])oc2ccccc12 | > 100 µM (inactive) | > 100 µM (inactive) | > 100 µM (inactive) |  | > 100 µM (inactive) | > 100 µM (inactive) | > 100 µM (inactive) | > 100 µM (inactive) | > 100 µM (inactive) |  | > 100 µM (inactive) | 99.5 µM (inactive) | > 100 µM (inactive) |  | > 100 µM (inactive) | > 100 µM (inactive) | > 100 µM (inactive) | > 100 µM (inactive) | > 100 µM (inactive) | > 100 µM (inactive)
C=CC(C)(C)/C=C/c1ccc(O)cc1 | 27.7 µM (inactive) | 27.9 µM (inactive) | 37.6 µM (inactive) |  | 21.9 µM (inactive) | 43.1 µM (inactive) | 37.9 µM (inactive) | 31.8 µM (inactive) | 28 µM (inactive) | 27.5 µM (inactive) | 35.9 µM (inactive) | 49.7 µM (inactive) |  |  | 33.3 µM (inactive) | 36.1 µM (inactive) | 38.2 µM (inactive) | 39.3 µM (inactive) | 24 µM (inactive) | 36.5 µM (inactive)
NS(=O)(=O)c1nnc(NC(=S)NC(=O)Nc2ccc(Cl)c(Cl)c2)s1 | 28.3 µM (inactive) |  | 26.9 µM (inactive) | 30.4 µM (inactive) | 17.1 µM (inactive) | 17.9 µM (inactive) | 19.4 µM (inactive) | 18.1 µM (inactive) | 27.3 µM (inactive) | 25.8 µM (inactive) | 37.1 µM (inactive) | 20.7 µM (inactive) | 17.4 µM (inactive) |  | 22.5 µM (inactive) | 34.9 µM (inactive) | 25.5 µM (inactive) | 18.7 µM (inactive) | 23.1 µM (inactive) | 21.3 µM (inactive)
C/C(=N\Nc1nc2ccccc2[nH]1)c1ccncn1 | 0.0693 µM (active) | 18.5 µM (inactive) | 0.0183 µM (active) | 0.681 µM (active) | 0.0942 µM (active) | 0.0951 µM (active) | 0.154 µM (active) | 0.0973 µM (active) | 2.61 µM (inactive) | 0.196 µM (active) | 0.396 µM (active) | 0.49 µM (active) | 0.352 µM (active) | 0.0811 µM (active) | 0.134 µM (active) | 3.43 µM (inactive) | 0.0818 µM (active) | 0.27 µM (active) | 1.41 µM (inactive) | 
COC(=O)/C=C/c1ccc2c(c1)CCC2 | 39.4 µM (inactive) | > 100 µM (inactive) | 27.5 µM (inactive) | 30.8 µM (inactive) | > 100 µM (inactive) | 64.3 µM (inactive) | 63.1 µM (inactive) | 37.2 µM (inactive) | 30.4 µM (inactive) | 74.5 µM (inactive) | > 100 µM (inactive) | > 100 µM (inactive) | 18.7 µM (inactive) | 36.7 µM (inactive) | 5.13 µM (inactive) | > 100 µM (inactive) | 26.8 µM (inactive) |  | 54 µM (inactive) | 
COC(=O)c1ccccc1C1CN=NC12Cc1c(C)c3c(c(C)c1C2=O)CCC3 (stereo not drawn) | 76.9 µM (inactive) | > 100 µM (inactive) | > 100 µM (inactive) | > 100 µM (inactive) | > 100 µM (inactive) | > 100 µM (inactive) | > 100 µM (inactive) | 54.6 µM (inactive) | > 100 µM (inactive) |  | > 100 µM (inactive) | > 100 µM (inactive) | 40.6 µM (inactive) |  | > 100 µM (inactive) | 2.48 µM (inactive) | 40.1 µM (inactive) | > 100 µM (inactive) | 25.2 µM (inactive) | > 100 µM (inactive)
CC(=O)/C(=C\NC(=S)Nc1ccc(S(N)(=O)=O)cc1)C(=O)Nc1ccccc1C | 41.9 µM (inactive) | 54.8 µM (inactive) | 16.1 µM (inactive) | 32.4 µM (inactive) | 20 µM (inactive) | 37.8 µM (inactive) | 32.3 µM (inactive) | 71.3 µM (inactive) | 38.2 µM (inactive) | 30.3 µM (inactive) |  | 34.2 µM (inactive) |  |  | 37.4 µM (inactive) | 88.7 µM (inactive) | 45.2 µM (inactive) | 43.3 µM (inactive) | 71.6 µM (inactive) | 33.9 µM (inactive)
CCCCSC1=N/C(=C\c2ccc(N(C)C)cc2)C(=O)N1 | 17.9 µM (inactive) |  | 82.8 µM (inactive) | 44.8 µM (inactive) | 28.6 µM (inactive) | 38.9 µM (inactive) | 28.6 µM (inactive) | 67.9 µM (inactive) | 0.256 µM (active) | 16.7 µM (inactive) | 61.9 µM (inactive) | 41.2 µM (inactive) | 35.5 µM (inactive) |  | 48.2 µM (inactive) | > 100 µM (inactive) | 11.9 µM (inactive) | 18 µM (inactive) | 20.4 µM (inactive) | > 100 µM (inactive)
Cc1occc(=O)c1O [MALTOL] | > 100 µM (inactive) | > 100 µM (inactive) | > 100 µM (inactive) | > 100 µM (inactive) | > 100 µM (inactive) | > 100 µM (inactive) | > 100 µM (inactive) | > 100 µM (inactive) | > 100 µM (inactive) | > 100 µM (inactive) | > 100 µM (inactive) |  | > 100 µM (inactive) | > 100 µM (inactive) | > 100 µM (inactive) | > 100 µM (inactive) | > 100 µM (inactive) | > 100 µM (inactive) | > 100 µM (inactive) | 
